The values below come from paper PMC10584170, “Machine learning-based phenotypic imaging to characterise the targetable biology of Plasmodium falciparum male gametocytes for the development of transmission-blocking antimalarials” (PLOS Pathogens, 2023).

The subject of data set [1] is P. falciparum male gametocytes. As to the kind of experiment: P. falciparum Dual Gamete Formation Assay (PfDGFA), male readout (exflagellation). Format: cell-based, Plasmodium falciparum NF54. Particulars: for Selectivity Ratio M: HepG2 Tox50 versus male IC50; for inhibition at 2 µM / Average inhibition male (%) / % inhibition male (individual replicates) R1 / % inhibition male (individual replicates) R3 / % inhibition male (individual replicates) R4: 24h preincubation with gametocytes; for IC50: PfDGFA, 24 h incubation with gametocytes before induction, exflagellation readout, read-out: Male IC50; for HitlevelM: number of replicates with >50% inhibition in the male readout. Put shortly: (§1)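 NF54 mature gametocytes (d14), cpd 24 h 37°C hypoxic gas; trigger: xanthurenic acid ookinete medium + Cy3 anti-Pfs25, 4°C 4 min → 28°C 4 min. Male: exflagellation centres, brightfield x6. Female: Pfs25+ gametes, fluorescence, +24 h 28°C dark.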

The subject of another data set is HepG2 cells. As to the kind of experiment: HepG2 cytotoxicity counter-screen. The conditions noted are these: cytotoxic activity against HepG2 cells.
Data set [2] has as its system P. falciparum female gametocytes. As to the kind of experiment: P. falciparum Dual Gamete Formation Assay (PfDGFA), female readout (Pfs25-positive female gametes). Particulars: for Selectivity ratio F: HepG2 Tox50 versus female IC50; for inhibition at 2 µM / Average inhibition female (%) / % inhibition female (individual replicates) R1 / % inhibition female (individual replicates) R3 / % inhibition female (individual replicates) R4: 24h preincubation with gametocytes; for IC50: PfDGFA, 24 h incubation with gametocytes before induction, female gamete readout, read-out: Female IC50; for HitlevelF: number of replicates with >50% inhibition in the female readout. Format: cell-based, Plasmodium falciparum NF54. Put shortly: as §1

Where [3] appears, read: Plasmodium falciparum, PfDGFA at 2µM, average of replicates, read-out: Average inhibition male (%).
Where [4] appears, read: Plasmodium falciparum, PfDGFA at 2µM, replicate R1, read-out: % inhibition male (individual replicates) R1.
Where [5] appears, read: Plasmodium falciparum, PfDGFA at 2µM, replicate R2, read-out: % inhibition male (individual replicates) R2.
Where [6] appears, read: Plasmodium falciparum, PfDGFA at 2µM, replicate R3, read-out: % inhibition male (individual replicates) R3.
Setting [7] is: Plasmodium falciparum, PfDGFA at 2µM, replicate R4, read-out: % inhibition male (individual replicates) R4.
The mark [8] stands for this setting: Plasmodium falciparum, PfDGFA at 2µM, average of replicates, read-out: Average inhibition female (%).
[9] abbreviates: Plasmodium falciparum, PfDGFA at 2µM, replicate R1, read-out: % inhibition female (individual replicates) R1.
[10] abbreviates: Plasmodium falciparum, PfDGFA at 2µM, replicate R2, read-out: % inhibition female (individual replicates) R2.
The mark [11] stands for this setting: Plasmodium falciparum, PfDGFA at 2µM, replicate R3, read-out: % inhibition female (individual replicates) R3.
[12] abbreviates: Plasmodium falciparum, PfDGFA at 2µM, replicate R4, read-out: % inhibition female (individual replicates) R4.
Where [13] appears, read: Plasmodium falciparum, 2µM, average of replicates, read-out: Average inhibition male (%).
Setting [14] is: Plasmodium falciparum, 2µM, replicate R1, read-out: % inhibition male (individual replicates) R1.
The mark [15] stands for this setting: Plasmodium falciparum, 2µM, replicate R2, read-out: % inhibition male (individual replicates) R2.
[16] abbreviates: Plasmodium falciparum, 2µM, replicate R4, read-out: % inhibition male (individual replicates) R4.
Setting [17] is: Plasmodium falciparum, 2µM, average of replicates, read-out: Average inhibition female (%).
Setting [18] is: Plasmodium falciparum, 2µM, replicate R1, read-out: % inhibition female (individual replicates) R1.
Where [19] appears, read: Plasmodium falciparum, 2µM, replicate R2, read-out: % inhibition female (individual replicates) R2.
The mark [20] stands for this setting: Plasmodium falciparum, 2µM, replicate R3, read-out: % inhibition female (individual replicates) R3.
Where [21] appears, read: Plasmodium falciparum, 2µM, replicate R4, read-out: % inhibition female (individual replicates) R4.
The mark [22] stands for this setting: PfDGFA at 2µM, average of replicates.

The structures appear in SMILES notation. Like-named read-outs stand apart in the source and are kept apart here. Where only a bound is given, the exact number is not on record here.

For `COc1cc(-c2nc(C(C)(C)CN)[nH]c2-c2ccncc2)ccc1Br.Cl` [TCMDC-140674], the “Selectivity Ratio M” value in data set [1] worked out at 24.67. The inhibition (usually the drop in the measured response relative to a control, in per cent) at 2 µM in data set [1] (setting [3]) stood at 80.4%; in data set [1] (setting [4]), 38.8%; in data set [1] (setting [5]), 100%; in data set [1] (setting [6]), 83.7%; in data set [1] (setting [7]), 98.9%; in data set [2] (setting [8]), 51.9%. Besides, the inhibition at 2 µM in data set [2] (setting [9]) amounted to 32.2%; in data set [2] (setting [10]), 85.8%; in data set [2] (setting [11]), 16.6%; in data set [2] (setting [12]), 72.9%. Besides, the results for the IC50 in data set [1] (Plasmodium falciparum) and in data set [2] (Plasmodium falciparum) were 1770 nM and 1610 nM, respectively. Further, the HitlevelM in data set [1] (2µM) is 3. Moreover, the Tox50 with HepG2 cells amounted to 43.66 µM. Besides, the “Selectivity ratio F” value in data set [2] was determined as 27.17. Also, in data set [2] (2µM), the HitlevelF turned out to be 2.
As for `N=C(N)Nc1nc(-c2ccc(NCc3ccc(CNc4cccc(-c5csc(NC(=N)N)n5)c4)cc3)cc2)cs1` [TCMDC-140699], the “Average inhibition male (%)” value in data set [1] (2µM, average of replicates) is given as 99.5%. For the same compound, the “% inhibition male (individual replicates) R1” value in data set [1] (2µM, replicate R1) was determined as 99.4%. The “% inhibition male (individual replicates) R3” value in data set [1] (2µM, replicate R3) was 98.0%. For the same compound, the “% inhibition male (individual replicates) R4” value in data set [1] (2µM, replicate R4) was determined as 98.9%. Moreover, in data set [1], the “Selectivity Ratio M” value came out at 7.68 and the IC50 – broadly, the concentration at which inhibition is half-maximal – worked out at 760 nM. In addition, the Tox50 with HepG2 cells is recorded as 5.85 µM. For the same compound, in data set [2] (2µM, average of replicates), the “Average inhibition female (%)” value is reported as 56.1%. Besides, in data set [2] (2µM, replicate R1), the “% inhibition female (individual replicates) R1” value is recorded as 34.4%. Also, the “% inhibition female (individual replicates) R3” value in data set [2] (2µM, replicate R3) is recorded as 32.5%. The “% inhibition female (individual replicates) R4” value in data set [2] (2µM, replicate R4) was 82.5%. Besides, in data set [2], the “Selectivity ratio F” value worked out at 2.7 and the half-inhibitory concentration (IC50) amounted to 2170 nM.
Regarding `CN(C)CCCOc1ccc(CN2CCC(c3c[nH]c4ccc(NCC5CCCCC5)cc34)CC2)cc1.O=C(O)C(F)(F)F` [TCMDC-140737], the “Average inhibition male (%)” value in data set [1] (2µM, average of replicates) is 93.4%. In addition, the “% inhibition male (individual replicates) R1” value in data set [1] (2µM, replicate R1) was 100.1%. Besides, in data set [1] (2µM, replicate R3), the “% inhibition male (individual replicates) R3” value worked out at 96.2%. Further, in data set [1] (2µM, replicate R4), the “% inhibition male (individual replicates) R4” value amounted to 94.6%. Besides, in data set [1], the “Selectivity Ratio M” value is 6.13 and the IC50 was 1340 nM. In addition, the Tox50 in the data set with HepG2 cells is given as 8.22 µM. In data set [2] (2µM, average of replicates), the “Average inhibition female (%)” value is on record as 62.2%. In addition, the “% inhibition female (individual replicates) R1” value in data set [2] (2µM, replicate R1) is recorded as 56.9%. Further, in data set [2] (2µM, replicate R3), the “% inhibition female (individual replicates) R3” value was 56.2%. The “% inhibition female (individual replicates) R4” value in data set [2] (2µM, replicate R4) is 81.1%. Besides, in data set [2], the “Selectivity ratio F” value is listed as 1.66 and the IC50 was determined as 4940 nM.
Consider `CCN(CC)CCN(Cc1ccc(-c2ccc(C(F)(F)F)cc2)cc1)C(=O)Cn1cc(Cc2cnn(C)c2)c(=O)nc1/C=C/c1ccc(F)cc1.O=C(O)C(O)C(O)C(=O)O` [TCMDC-140741], for which the “Selectivity Ratio M” value in data set [1] worked out at 19.3. Moreover, the inhibition at 2 µM in data set [1] (setting [13]) worked out at 90.1%; in data set [1] (setting [14]), 92.2%; in data set [1] (setting [15]), 91.9%; in data set [1] (Plasmodium falciparum, 2µM, replicate R3, read-out: % inhibition male (individual replicates) R3) it was 76%; in data set [1] (setting [16]) it was 100%; in data set [2] (setting [17]), 44.8%. The inhibition at 2 µM in data set [2] (setting [18]) is 41.2%; in data set [2] (setting [19]), 41.2%; in data set [2] (setting [20]), 34.9%; in data set [2] (setting [21]) it was 61.9%. Besides, the IC50 in data set [1] (Plasmodium falciparum) came to 850 nM; in data set [2] (Plasmodium falciparum), 7160 nM. In addition, the Tox50 with HepG2 cells came out at 16.37 µM. In addition, the “Selectivity ratio F” value in data set [2] was 2.29.
`CC(C)(C)c1ccc(CNC(=O)c2ccc(CNC3CCC(N)CC3)s2)cc1` (centres unmarked) [TCMDC-140777]: in data set [1], the “Selectivity Ratio M” value came to 7.72 and the IC50 worked out at 1210 nM. The “Average inhibition male (%)” value in data set [1] (setting [22]) amounted to 76.0%. The “% inhibition male (individual replicates) R1” value in data set [1] (PfDGFA at 2µM, replicate R1) was found to be 74.4%. Further, the “% inhibition male (individual replicates) R3” value in data set [1] (PfDGFA at 2µM, replicate R3) came out at 56.4%. In data set [1] (PfDGFA at 2µM, replicate R4), the “% inhibition male (individual replicates) R4” value was determined as 93.6%. In data set [1] (2µM), this compound had a HitlevelM of 4. In the data set on HepG2 cells, the Tox50 is recorded as 9.32 µM. Also, in data set [2], the “Selectivity ratio F” value is reported as 1.74 and the half-maximal inhibitory concentration (IC50) is 5360 nM. The “Average inhibition female (%)” value in data set [2] (setting [22]) was 32.6%. Besides, the “% inhibition female (individual replicates) R1” value in data set [2] (PfDGFA at 2µM, replicate R1) was determined as 23.5%. The “% inhibition female (individual replicates) R3” value in data set [2] (PfDGFA at 2µM, replicate R3) is recorded as 26.9%. In data set [2] (PfDGFA at 2µM, replicate R4), the “% inhibition female (individual replicates) R4” value worked out at 56.3%. This compound also registered a HitlevelF in data set [2] (2µM) of 1.
For `CCN(CC)CCOc1ccc(Nc2ncc3cc(-c4c(Cl)cccc4Cl)c(=O)n(C)c3n2)cc1` [TCMDC-140940], the “Selectivity Ratio M” value in data set [1] is 1.38. Besides, the inhibition at 2 µM is 72.1% in data set [1] (setting [3]); 72.9% in data set [1] (setting [4]); 64.9% in data set [1] (setting [5]); 74% in data set [1] (setting [6]); 76.8% in data set [1] (setting [7]); -0.6% in data set [2] (setting [8]). For the same compound, the inhibition at 2 µM in data set [2] (setting [9]) is -7.5%; in data set [2] (setting [10]), 1.2%; in data set [2] (setting [11]), -12%; in data set [2] (setting [12]), 15.8%. For the same compound, the IC50 in data set [1] (Plasmodium falciparum) is 1930 nM; in data set [2] (Plasmodium falciparum), above 10000 nM. In addition, the HitlevelM in data set [1] (2µM) is given as 4. For the same compound, the Tox50 in the data set on HepG2 cells was 2.66 µM. Moreover, the “Selectivity ratio F” value in data set [2] is recorded as 0.27. In addition, the HitlevelF in data set [2] (2µM) is recorded as 0.
On to `CCN(CC)CCN(Cc1ccc(-c2ccc(C(F)(F)F)cc2)cc1)C(=O)Cn1cc(Cc2cnn(C)c2)c(=O)nc1/C=C/c1cccc(F)c1F.O=C(O)C(O)C(O)C(=O)O` [TCMDC-140964], for which the “Selectivity Ratio M” value in data set [1] worked out at 20.63. Further, the inhibition at 2 µM came out at 99.3% in data set [1] (setting [13]); 98.8% in data set [1] (setting [14]); 97.8% in data set [1] (setting [15]); 101% in data set [1] (setting [16]); 36.2% in data set [2] (setting [17]); 34% in data set [2] (setting [18]). Also, the inhibition at 2 µM in data set [2] (setting [19]) was found to be 38.6%; in data set [2] (setting [20]), 28.7%; in data set [2] (setting [21]), 43.5%. In addition, the values for the IC50 in data set [1] (Plasmodium falciparum) and in data set [2] (Plasmodium falciparum) were 630 nM and 4100 nM, respectively. The compound also gave a Tox50 in the data set with HepG2 cells of 12.97 µM. Further, the “Selectivity ratio F” value in data set [2] came out at 3.16.
